Results published in publication PMC7010297, “How the initiating ribosome copes with ppGpp to translate mRNAs” (PLoS Biology, 2020).
Several values for one entry are separate records, joined by “and”; a condition that tells them apart may be missing. Equal entries are not always repeated. Where two headings read alike, the source gives them in different places.

Key:
30S-bound IF2 (30S IC) = target: T1, 30S-bound IF2 (30S IC) (Escherichia coli, UniProt P0A705); assay: ppGpp (or GDP) to GTP competitive assay for 30S IC formation by MST; format: binding
T1 construct: 6xHis (N); made in house
T1 sequence (P0A705 whole entry, looked up): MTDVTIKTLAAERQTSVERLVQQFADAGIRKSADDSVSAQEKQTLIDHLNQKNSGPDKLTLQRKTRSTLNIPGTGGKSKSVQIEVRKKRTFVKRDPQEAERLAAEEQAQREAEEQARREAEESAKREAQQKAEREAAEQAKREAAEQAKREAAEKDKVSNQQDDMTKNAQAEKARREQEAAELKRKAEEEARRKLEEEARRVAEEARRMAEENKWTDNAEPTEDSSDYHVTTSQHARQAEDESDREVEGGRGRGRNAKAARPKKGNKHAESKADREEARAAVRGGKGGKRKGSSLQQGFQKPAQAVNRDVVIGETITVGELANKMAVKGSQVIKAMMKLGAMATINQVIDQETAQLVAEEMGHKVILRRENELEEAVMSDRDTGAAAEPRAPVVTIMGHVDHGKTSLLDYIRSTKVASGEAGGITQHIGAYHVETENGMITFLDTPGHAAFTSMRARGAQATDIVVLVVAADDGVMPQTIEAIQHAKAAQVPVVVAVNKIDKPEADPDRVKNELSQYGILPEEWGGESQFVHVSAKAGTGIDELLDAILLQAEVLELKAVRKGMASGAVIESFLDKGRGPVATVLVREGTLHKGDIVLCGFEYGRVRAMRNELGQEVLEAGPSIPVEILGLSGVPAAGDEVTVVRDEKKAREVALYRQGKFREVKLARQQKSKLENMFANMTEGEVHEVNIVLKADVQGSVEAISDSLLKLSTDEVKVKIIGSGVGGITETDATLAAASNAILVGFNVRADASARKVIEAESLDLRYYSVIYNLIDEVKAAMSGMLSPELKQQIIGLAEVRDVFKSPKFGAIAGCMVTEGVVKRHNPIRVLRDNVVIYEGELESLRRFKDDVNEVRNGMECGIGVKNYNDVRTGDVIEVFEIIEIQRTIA
Method: MST was calculated from the respective fluorescence time dependencies (S3 Fig). […] Symbols as in (B). […] Continuous lines indicate nonlinear regression fittings with quadratic (B and E) or same-site competition (G) functions. Three measurements were performed; mean and standard deviations are plotted (S1 Data).
[…] Symbols are as indicated, 3 measurements were performed, and mean and standard deviation are plotted (S1 Data). Continuous lines show nonlinear regression fittings with a same-site inhibition model. […] (PDF) Click here for additional data file.

IF2-bound 30S IC = target: T2, IF2-bound 30S IC (Escherichia coli, UniProt P0A705); assay: 30S IC formation by MST, guanosine nucleotide titration; format: binding; settings: for MST Average / MST Replicates (a.u.): Fig 2B (GDP/ppGpp series);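 as to MST Average: lower thermophoresis signal means Bpy-tRNAi dissociation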;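 as to MST Replicates (a.u.): lower thermophoresis signal means Bpy-tRNAi dissociation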
T2 construct: 6xHis (N); made in house
T2 sequence (P0A705 whole entry, looked up): as above
Summary of the method: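 Binding of fluorescently labelled initiator tRNA (Bpy-tRNAi) to E. coli 30S subunits followed by microscale thermophoresis, titrating guanosine nucleotides at constant 1 μM IF2. Dissociation constants from quadratic nonlinear fits of Ff/Fi versus ligand concentration; three measurements, mean ± SD.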

70S IC = target: T3, 70S IC (Escherichia coli, UniProt P0A705); assay: 70S IC formation by Bpy-tRNAi accommodation, stopped-flow; format: biochemical; design: K1, best-fit value: unit not given here; settings: for A0, best-fit value / A1, best-fit value / K1, best-fit value / k2, best-fit value: fit Y=A0+A1*exp(-K1*x)+k2*x; for kfast (s-1) Avg: fluorescence
T3 construct: 6xHis (N); made in house
T3 sequence (P0A705 whole entry, looked up): as above
Method: Continuous lines indicate nonlinear regression fittings with a quadratic equation. Three measurements were performed; mean and standard deviation are plotted (S1 Data). (B) as (A) to measure the concentration dependence for each tested guanosine nucleotide at constant IF2 (1 μM). […] Continuous lines show best fits using exponential functions. (D) Formation of 70S IC as measured by Bpy-tRNAi accommodation in the P site of the ribosome; 0.1 μM 30S ICs were formed with Bpy-tRNAi and rapidly mixed with 0.3 μM 50S subunits on a stopped-flow apparatus as described in [14]. Colors are as in (C). Continuous lines show best fits using an exponential function for a single reaction step. Each stopped-flow trace results from the mean of 5 to 7 replicates.
(A) Scheme of 70S IC formation. […] Time traces were analyzed by nonlinear regression with exponential terms. […] Formation of 70S IC, as measured by Bpy-tRNAi accommodation in the absence (F) or presence of 200 μM ppGpp (G). Time traces were analyzed by nonlinear regression with one exponential term. […] Continuous lines show best fits using an exponential function for a single reaction step. All time traces are mean values of 5 to 10 replicates. Bar graphs show mean and standard errors (error bars) derived from the nonlinear regression fitting (D,E,H,I) (S1 Data).
To measure 70S pre-IC formation, a SX-20 stopped-flow instrument (Applied Photophysics, Leatherhead, UK) was set up for LS recording with an excitation wavelength of 430 nm. Scattered light was measured at an angle of 90° without a filter. Pseudo first-order conditions were approximated by using ≥3-fold excess of 50S subunits over 30S ICs; 0.2 μM 30S ICs were rapidly mixed in the instrument with 0.6 μM 50S at 25 °C. Bpy-tRNAi accommodation was measured essentially as described elsewhere. Briefly, 0.2 μM 30S ICs were formed using Bpy-tRNAi and rapidly mixed with 0.6 μM 50S at 25 °C. Fluorescence was excited at 470 nm and measured after a 495-nm longpass filter. Individual traces (6–11 traces) were averaged, and the resulting kinetic curve was approximated by single (F = A0 + A1*exp (-kapp1*t)) or double (F = A0 + A1*exp (-kapp1*t) + A2*exp (-kapp2*t)) exponential fit using Graphpad Prism 6.0 software (GraphPad, San Diego, California).

In the case of `Nc1nc2c(ncn2[C@@H]2O[C@H](COP(=O)(O)OP(=O)(O)O)[C@@H](O)[C@H]2O)c(=O)[nH]1` [GDP, guanosine diphosphate], the IC50 (30S-bound IF2 (30S IC); mRNA mInfA, read-out: IC50 Average) is reported as 126 µM, the IC50 (30S-bound IF2 (30S IC); mRNA mInfA, read-out: IC50 Replicates) is reported as 124 µM and 128 µM and 126 µM and the IC50 (30S-bound IF2 (30S IC); mRNA mMF1, read-out: IC50 Average) is reported as 38.6 µM. The IC50 (30S-bound IF2 (30S IC); mRNA mMF1, read-out: IC50 Replicates) was 37.5 µM and 39.6 µM and 38.8 µM, the IC50 (30S-bound IF2 (30S IC); mRNA mTufA, read-out: IC50 Average) was 173 µM and the IC50 (30S-bound IF2 (30S IC); mRNA mTufA, read-out: IC50 Replicates) was 168 µM and 176 µM (2×). For the same compound, the “MST Average” value (IF2-bound 30S IC; nucleotide 0.13 µM) was 933.71 a.u, the “MST Replicates (a.u.)” value (IF2-bound 30S IC; nucleotide 0.13 µM, constant IF2 (1 μM)) was 931.66 a.u. and 934.22 a.u. and 933.66 a.u. and 935.28 a.u and the “MST Average” value (IF2-bound 30S IC; nucleotide 0.25 µM) was 934.55 a.u. For the same compound, the “MST Replicates (a.u.)” value (IF2-bound 30S IC; nucleotide 0.25 µM) was 933.08 a.u. and 934.64 a.u. and 934.32 a.u. and 936.15 a.u, the “MST Average” value (IF2-bound 30S IC; nucleotide 0.50 µM) was 935.70 a.u and the “MST Replicates (a.u.)” value (IF2-bound 30S IC; nucleotide 0.50 µM) was 933.41 a.u. and 935.59 a.u. and 935.81 a.u. and 937.99 a.u. The “MST Average” value (IF2-bound 30S IC; nucleotide 1.00 µM) was 937.58 a.u, the “MST Replicates (a.u.)” value (IF2-bound 30S IC; nucleotide 1.00 µM) was 936.31 a.u. and 938.31 a.u. and 936.76 a.u. and 938.95 a.u and the “MST Average” value (IF2-bound 30S IC; nucleotide 2.00 µM) was 940.10 a.u. The “MST Replicates (a.u.)” value (IF2-bound 30S IC; nucleotide 2.00 µM) was 938.98 a.u. and 940.66 a.u. and 939.47 a.u. and 941.28 a.u, the “MST Average” value (IF2-bound 30S IC; nucleotide 4.00 µM) was 942.84 a.u and the “MST Replicates (a.u.)” value (IF2-bound 30S IC; nucleotide 4.00 µM) was 941.71 a.u. and 943.61 a.u. and 942.43 a.u. and 943.60 a.u. The “MST Average” value (IF2-bound 30S IC; nucleotide 8.00 µM) was 945.64 a.u, the “MST Replicates (a.u.)” value (IF2-bound 30S IC; nucleotide 8.00 µM) was 944.41 a.u. and 946.59 a.u. and 945.06 a.u. and 946.52 a.u and the “MST Average” value (IF2-bound 30S IC; nucleotide 16.00 µM) was 952.27 a.u. For the same compound, the “MST Replicates (a.u.)” value (IF2-bound 30S IC; nucleotide 16.00 µM) was 951.48 a.u. and 953.11 a.u. and 951.45 a.u. and 953.06 a.u, the “MST Average” value (IF2-bound 30S IC; nucleotide 31.00 µM) was 953.23 a.u and the “MST Replicates (a.u.)” value (IF2-bound 30S IC; nucleotide 31.00 µM) was 951.79 a.u. and 954.63 a.u. and 951.76 a.u. and 954.74 a.u. For the same compound, the “MST Average” value (IF2-bound 30S IC; nucleotide 62.00 µM) was 952.59 a.u, the “MST Replicates (a.u.)” value (IF2-bound 30S IC; nucleotide 62.00 µM) was 952.17 a.u. and 953.16 a.u. and 951.66 a.u. and 953.37 a.u and the “MST Average” value (IF2-bound 30S IC; nucleotide 125.00 µM) was 950.10 a.u. For the same compound, the “MST Replicates (a.u.)” value (IF2-bound 30S IC; nucleotide 125.00 µM) was 949.56 a.u. and 950.68 a.u. and 949.29 a.u. and 950.89 a.u, the “promotion of Bpy-tRNAi binding (thermophoresis) in guanosine nucleotide titration” value (IF2-bound 30S IC; constant IF2 (1 μM)) was “failed to promote Bpy-tRNAi binding at any concentration” and the “efficiency (amplitude) of 70S IC formation (Bpy-tRNAi accommodation)” value (70S IC; 0.2 mM nucleotide, no GTP) was “reduced efficiencies”. The “A0, best-fit value” (70S IC; mInfA) was 0.98, the “A1, best-fit value” (70S IC; mInfA) was 0.0231 and the “K1, best-fit value” (70S IC; mInfA) was 1.28. For the same compound, the “k2, best-fit value” (70S IC; mInfA) was -0.00069, the “A0, best-fit value” (70S IC; mMF1) was 0.93 and the “A1, best-fit value” (70S IC; mMF1) was 0.07. For the same compound, the “K1, best-fit value” (70S IC; mMF1) was 1.57, the “k2, best-fit value” (70S IC; mMF1) was -0.00092 and the “Fluorescence Amplitude Avg” value (70S IC; mRNA mInfA) was 0.023. For the same compound, the “kfast (s-1) Avg” value (70S IC; mRNA mInfA) was 1.28 s⁻¹, the “Fluorescence Amplitude Avg” value (70S IC; mRNA mMF1) was 0.067 and the “kfast (s-1) Avg” value (70S IC; mRNA mMF1) was 1.57 s⁻¹. The “Fluorescence Amplitude Avg” value (70S IC; mRNA mTufA) was 0.062, the “kfast (s-1) Avg” value (70S IC; mRNA mTufA) was 2.65 s⁻¹ and the “A0, best-fit value” (70S IC; mTufA) was 0.94. For the same compound, the “A1, best-fit value” (70S IC; mTufA) was 0.06, the “K1, best-fit value” (70S IC; mTufA) was 2.65 and the “k2, best-fit value” (70S IC; mTufA) was -0.00072.
